One test addresses T1, RIPK1 kinase (Homo sapiens, UniProt Q13546).
T1 construct: purchased Promega VA7593
T1 sequence (Q13546 1-671): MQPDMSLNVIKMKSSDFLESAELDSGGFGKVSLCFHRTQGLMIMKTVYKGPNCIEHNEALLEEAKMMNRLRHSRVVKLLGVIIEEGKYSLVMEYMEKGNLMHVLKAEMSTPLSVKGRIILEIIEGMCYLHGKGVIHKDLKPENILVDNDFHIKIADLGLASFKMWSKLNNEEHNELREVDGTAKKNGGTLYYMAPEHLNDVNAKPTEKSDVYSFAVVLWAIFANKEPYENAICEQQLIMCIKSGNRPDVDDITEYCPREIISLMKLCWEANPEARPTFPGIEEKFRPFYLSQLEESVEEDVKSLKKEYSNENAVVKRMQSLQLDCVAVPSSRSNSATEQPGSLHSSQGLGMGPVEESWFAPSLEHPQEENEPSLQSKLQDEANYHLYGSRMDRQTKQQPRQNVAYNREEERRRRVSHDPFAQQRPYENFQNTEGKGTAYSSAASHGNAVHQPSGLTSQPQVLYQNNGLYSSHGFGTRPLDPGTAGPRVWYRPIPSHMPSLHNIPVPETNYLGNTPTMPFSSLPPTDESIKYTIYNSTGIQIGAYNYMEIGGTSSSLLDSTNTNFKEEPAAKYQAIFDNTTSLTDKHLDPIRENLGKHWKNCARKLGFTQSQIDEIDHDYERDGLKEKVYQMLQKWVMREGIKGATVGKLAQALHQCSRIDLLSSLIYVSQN
Put plainly: In vitro RIPK1 kinase activity IC50 assay (ADP-Glo). The following applies: ATP 10 μM; MBP substrate 100 μg/mL; 8 concentration points; read-out: IC50 range of compounds for RIPK1 kinase activity. It counts as biochemical. As for the experimental part:
RIPK1 kinase activity was assayed using the ADP-Glo assay and RIPK1 kinase reaction system (Promega, catalog number: VA7593). The RIPK1 kinase activity assay was performed according to the Promega kit manual.
The experimental method was briefly described as below. The concentration of RIPK1 kinase in the RIPK1 kinase reaction system was determined by kinase titration and S/B10. The compound was diluted with 1× kinase buffer D (1% DMSO), 1 μL of 1 mM compound DMSO stock solution was added to 19 μL 1× kinase buffer D, and the compound was serially diluted with 1× kinase buffer D at a ratio of 1:5, for a total of 8 concentration points, and a control with the same DMSO volume was set. RIPK1 kinase was diluted with 1× kinase buffer D. 2.5×ATP/substrate was diluted with 1× kinase buffer D. The final concentration of ATP in the kinase reaction system was 10 μM. The final concentration of MBP substrate was 100 μg/mL. 1 μL of diluted compound and 2 μL of diluted RIPK1 kinase were mixed, incubated at room temperature for 15 minutes, 2 μL of 2.5×ATP/substrate was added, mixed, and incubated at room temperature for 1 hour. 5 μL ADP-Glo reagent was added to each well and incubated at room temperature for 1 hour. 10 μL ADP detection reagent was added to each well and incubated at room temperature for another 0.5-1 hour. The chemiluminescent signal was read with a microplate reader and the kinase activity inhibition rate was calculated. IC50 was obtained by fitting the nonlinear regression curve log [inhibitor] vs. response-variable slope (four parameters) in GraphPad Prism.
On the technique in general: ADP-Glo turns the ADP formed in a reaction into a luminescent signal.

In a further test the test system is U937 cells. As to the kind of experiment: EC50 of necroptosis inhibition in U937 cells (TSZ-induced, CellTiter-Glo). It counts as cell-based. The following applies: Homo sapiens, U-937; TSZ (hTNF-α, SM-164, Z-VAD-FMK) 20 hours; 10 concentration points; read-out: EC50 intervals of necroptosis inhibition in U937 cells. The method in brief:
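U937 cells pretreated 15 min with compound (10-point, 1:3 series), then necroptosis induced by TSZ (hTNF-α, SM-164, Z-VAD-FMK) for 20 h at 37 °C. Viability measured as ATP by CellTiter-Glo luminescence; inhibition normalised to untreated and TSZ-only wells, EC50 from four-parameter fit.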

The structures appear in SMILES notation. Bounds are passed on as bounds.

As for `CN1C(=O)[C@@H](NC(=O)C(=O)NCCc2ccc(F)cc2)COc2ccc(C#CCCO)cc21` [Example 35, (S)—N^1-(4-fluorophenethyl)-N^2-(7-(4-hydroxybut-1-yn-1-yl)-5-methyl-4-oxo-2,3,4,5-tetrahydrobenzo[b][1,4]oxazepin-3-yl)oxalamide], the IC50 (as a rule, the concentration that inhibits the measured activity by half) on RIPK1 kinase is less than 100 nM. Also, the EC50 – broadly, the concentration giving half of the maximal effect – in the test on U937 cells lay in the range of 100 to 500 nM.
The matching figures for `CN1C(=O)[C@@H](NC(=O)C(=O)NCCc2cc(F)cc(F)c2)COc2ccc(C#CCCO)cc21` [Example 36, (S)—N^1-(3,5-difluorophenethyl)-N^2-(7-(4-hydroxybut-1-yn-1-yl)-5-methyl-4-oxo-2,3,4,5-tetrahydrobenzo[b][1,4]oxazepin-3-yl)oxalamide]: less than 100 nM and less than 100 nM.
`CN1C(=O)[C@@H](NC(=O)C(=O)NCc2cccc(F)c2)COc2ccc(C#CCCO)cc21` [Example 39, (S)—N^1-(3-fluorobenzyl)-N^2-(7-(4-hydroxybut-1-yn-1-yl)-5-methyl-4-oxo-2,3,4,5-tetrahydrobenzo[b][1,4]oxazepin-3-yl)oxalamide]: the IC50 at RIPK1 kinase was less than 100 nM. Also, the EC50 with U937 cells is 100 to 500 nM.
For the compound `CN1C(=O)[C@@H](NC(=O)C(=O)NCc2ccc(F)cc2)COc2ccc(C#CCCO)cc21` [Example 40, (S)—N^1-(4-fluorobenzyl)-N^2-(7-(4-hydroxybut-1-yn-1-yl)-5-methyl-4-oxo-2,3,4,5-tetrahydrobenzo[b][1,4]oxazepin-3-yl)oxalamide], the IC50 on RIPK1 kinase is less than 100 nM. In addition, in the test on U937 cells, the EC50 is less than 100 nM.
Consider `CN1C(=O)[C@@H](NC(=O)C(=O)NCCc2cccc(F)c2)COc2ccc(C#CC(C)(C)O)cc21` [Example 42, (S)—N^1-(3-fluorophenethyl)-N^2-(7-(3-hydroxy-3-methylbut-1-yn-1-yl)-5-methyl-4-oxo-2,3,4,5-tetrahydrobenzo[b][1,4]oxazepin-3-yl)oxalamide], for which the IC50 at RIPK1 kinase is less than 100 nM. Besides, the EC50 with U937 cells is less than 100 nM.
For `CN1C(=O)[C@@H](NC(=O)C(=O)NCCc2ccccc2)COc2ccc(C#CC3(O)COC3)cc21` [Example 43, (S)—N^1-(7-((3-hydroxyoxetan-3-yl)ethynyl)-5-methyl-4-oxo-2,3,4,5-tetrahydrobenzo[b][1,4]oxazepin-3-yl)-N^2-phenethyloxalamide], the IC50 on RIPK1 kinase was less than 100 nM. In addition, the EC50 in the test on U937 cells is less than 100 nM.
As to `CN1C(=O)[C@@H](NC(=O)C(=O)NCCc2ccccc2)COc2ccc(C#CC3(O)CCCCC3)cc21` [Example 44, (S)—N^1-(7-((1-hydroxycyclohexyl)ethynyl)-5-methyl-4-oxo-2,3,4,5-tetrahydrobenzo[b][1,4]oxazepin-3-yl)-N^2-phenethyloxalamide], the IC50 at RIPK1 kinase was less than 100 nM. Further, the EC50 with U937 cells is less than 100 nM.
Take `C/C(C#Cc1ccc2c(c1)N(C)C(=O)[C@@H](NC(=O)C(=O)NCCc1ccccc1)CO2)=C/CO` [Example 45, (S,Z)-N^1-(7-(5-hydroxy-3-methylpent-3-en-1-yn-1-yl)-5-methyl-4-oxo-2,3,4,5-tetrahydrobenzo[b][1,4]oxazepin-3-yl)-N^2-phenethyloxalamide]: the IC50 at RIPK1 kinase was less than 100 nM. Moreover, in the test with U937 cells, the EC50 is less than 100 nM.
Consider `CN1C(=O)[C@@H](NC(=O)C(=O)NCCc2ccccc2)COc2ccc(C#CCN3CCC(O)C3)cc21` (stereo partly drawn) [Example 46, N^1-((3S)-7-(3-(3-hydroxypyrrolidin-1-yl)prop-1-yn-1-yl)-5-methyl-4-oxo-2,3,4,5-tetrahydrobenzo[b][1,4]oxazepin-3-yl)-N^2-phenethyloxalamide], for which the IC50 on RIPK1 kinase is less than 100 nM. The EC50 in the test on U937 cells was less than 100 nM.
Regarding `CN1C(=O)[C@@H](NC(=O)C(=O)NCCc2ccccc2)COc2ccc(C#CCN3CCC(=O)CC3)cc21` [Example 47, (S)—N^1-(5-methyl-4-oxo-7-(3-(4-oxopiperidin-1-yl)prop-1-yn-1-yl)-2,3,4,5-tetrahydrobenzo[b][1,4]oxazepin-3-yl)-N^2-phenethyloxalamide], the IC50 on RIPK1 kinase is less than 100 nM. Moreover, the EC50 with U937 cells is less than 100 nM.

(Values after patent publication US20250368633A1, “AZEPINE FUSED RING COMPOUND AS RIPK1 INHIBITOR AND USE THEREOF” (ARTIVILA BIOPHARMA, priority 2022, published 2025).)
